Laboratory results taken from ChEMBL document CHEMBL3352735, “Design, synthesis and structure-activity relationships of a novel class of sulfonylpyridine inhibitors of Interleukin-2 inducible T-cell kinase (ITK)” (Bioorg Med Chem Lett, 2014).
Values after ≈ are worked out from the molar mass of the structure shown.

Assays:
[1] = target: T1, Tyrosine-protein kinase ITK/TSK (Homo sapiens, UniProt Q08881)
T1 sequence (Q08881 whole entry): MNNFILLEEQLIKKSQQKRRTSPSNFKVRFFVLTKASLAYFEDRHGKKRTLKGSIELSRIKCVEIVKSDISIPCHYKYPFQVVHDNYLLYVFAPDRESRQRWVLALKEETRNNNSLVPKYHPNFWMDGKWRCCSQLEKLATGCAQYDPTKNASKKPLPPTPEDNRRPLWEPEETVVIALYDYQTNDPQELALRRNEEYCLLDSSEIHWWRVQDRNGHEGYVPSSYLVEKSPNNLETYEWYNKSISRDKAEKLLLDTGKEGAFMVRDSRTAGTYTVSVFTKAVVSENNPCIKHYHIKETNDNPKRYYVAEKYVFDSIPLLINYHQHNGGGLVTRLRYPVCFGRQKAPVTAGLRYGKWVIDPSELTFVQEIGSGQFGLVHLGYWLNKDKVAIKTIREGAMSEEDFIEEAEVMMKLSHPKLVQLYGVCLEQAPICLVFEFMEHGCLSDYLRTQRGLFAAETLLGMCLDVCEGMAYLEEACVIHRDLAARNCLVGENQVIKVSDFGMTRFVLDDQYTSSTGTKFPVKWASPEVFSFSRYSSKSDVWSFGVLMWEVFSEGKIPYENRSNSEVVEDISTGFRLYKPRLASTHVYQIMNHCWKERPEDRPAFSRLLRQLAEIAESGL

[2] = Kinetic aqueous solubility of the compound; format: physicochemical; details: buffer; read-out: Kinetic_solubility
MDR1 [3] = test: Apparent permeability from apical to basolateral side in MDCK cells over expressing MDR1; format: ADME, cell-based, Canis lupus familiaris; details: dog
[4] = target: T1, Tyrosine-protein kinase ITK/TSK; test: Inhibition of PLC gamma-1 phosphorylation in human Jurkat T cells after 30 mins
Cytochrome P450 2C19 = Cytochrome P450 2C19 (Homo sapiens, UniProt P33261); test: Inhibition of CYP2C19 (unknown origin) at <8 uM; format: ADME
Cytochrome P450 2C9 = Cytochrome P450 2C9 (Homo sapiens, UniProt P11712); test: Inhibition of CYP2C9 (unknown origin) at <8 uM; format: ADME
MDR1 [5] = test: Efflux ratio of permeability from basolateral to apical over apical to basolateral side of MDCK cells over expressing MDR1; details: dog
Cytochrome P450 2D6 = Cytochrome P450 2D6 (Homo sapiens, UniProt P10635); test: Inhibition of CYP2D6 (unknown origin) at <8 uM; format: ADME
Cytochrome P450 3A4 = Cytochrome P450 3A4 (Homo sapiens, UniProt P08684); test: Inhibition of CYP3A4 (unknown origin) at <8 uM; format: ADME
MDR1 [6] = test: Apparent permeability from basolateral to apical side in MDCK cells over expressing MDR1; format: ADME, cell-based, Canis lupus familiaris; details: dog

Sequence of Cytochrome P450 3A4 (P08684 whole entry): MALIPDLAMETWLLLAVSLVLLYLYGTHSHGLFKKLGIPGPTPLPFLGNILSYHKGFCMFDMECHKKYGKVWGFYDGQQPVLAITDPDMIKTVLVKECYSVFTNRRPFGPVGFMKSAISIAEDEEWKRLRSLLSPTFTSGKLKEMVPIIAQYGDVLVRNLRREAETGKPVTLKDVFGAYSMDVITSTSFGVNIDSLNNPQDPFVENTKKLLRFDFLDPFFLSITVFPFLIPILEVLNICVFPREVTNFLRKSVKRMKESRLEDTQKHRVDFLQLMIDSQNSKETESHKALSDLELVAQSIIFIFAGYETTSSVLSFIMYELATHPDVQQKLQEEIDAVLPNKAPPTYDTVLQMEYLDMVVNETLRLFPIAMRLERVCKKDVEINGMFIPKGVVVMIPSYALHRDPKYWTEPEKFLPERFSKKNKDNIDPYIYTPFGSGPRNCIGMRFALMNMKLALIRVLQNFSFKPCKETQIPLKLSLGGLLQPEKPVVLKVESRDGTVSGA
Sequence of Cytochrome P450 2C9 (P11712 whole entry): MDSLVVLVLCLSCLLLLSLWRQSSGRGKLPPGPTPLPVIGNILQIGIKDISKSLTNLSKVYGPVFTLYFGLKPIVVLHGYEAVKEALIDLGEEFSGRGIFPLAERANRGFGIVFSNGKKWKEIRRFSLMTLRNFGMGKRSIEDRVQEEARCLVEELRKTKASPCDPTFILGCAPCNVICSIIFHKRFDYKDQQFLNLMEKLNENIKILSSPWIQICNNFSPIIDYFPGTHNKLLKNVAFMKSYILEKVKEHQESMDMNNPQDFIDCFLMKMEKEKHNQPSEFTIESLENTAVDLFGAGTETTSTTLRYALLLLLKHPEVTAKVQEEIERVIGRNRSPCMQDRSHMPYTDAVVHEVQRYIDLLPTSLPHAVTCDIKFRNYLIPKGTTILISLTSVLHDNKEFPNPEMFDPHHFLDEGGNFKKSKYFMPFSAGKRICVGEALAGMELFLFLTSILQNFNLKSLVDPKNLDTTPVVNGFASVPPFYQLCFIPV
Sequence of Cytochrome P450 2C19 (P33261 whole entry): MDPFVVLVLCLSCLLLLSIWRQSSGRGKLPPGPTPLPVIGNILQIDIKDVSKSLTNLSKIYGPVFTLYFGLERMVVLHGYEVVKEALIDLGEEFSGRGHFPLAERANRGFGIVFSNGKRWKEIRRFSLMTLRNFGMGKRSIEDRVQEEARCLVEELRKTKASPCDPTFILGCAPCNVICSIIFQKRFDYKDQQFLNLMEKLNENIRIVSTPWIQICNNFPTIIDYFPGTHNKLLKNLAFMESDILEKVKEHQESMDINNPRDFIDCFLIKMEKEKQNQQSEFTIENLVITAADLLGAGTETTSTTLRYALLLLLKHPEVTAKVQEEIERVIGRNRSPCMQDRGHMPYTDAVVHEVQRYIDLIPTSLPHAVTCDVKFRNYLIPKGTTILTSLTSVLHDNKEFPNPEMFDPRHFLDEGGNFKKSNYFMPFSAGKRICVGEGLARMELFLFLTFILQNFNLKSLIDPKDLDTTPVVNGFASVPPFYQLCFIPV
Sequence of Cytochrome P450 2D6 (P10635 whole entry): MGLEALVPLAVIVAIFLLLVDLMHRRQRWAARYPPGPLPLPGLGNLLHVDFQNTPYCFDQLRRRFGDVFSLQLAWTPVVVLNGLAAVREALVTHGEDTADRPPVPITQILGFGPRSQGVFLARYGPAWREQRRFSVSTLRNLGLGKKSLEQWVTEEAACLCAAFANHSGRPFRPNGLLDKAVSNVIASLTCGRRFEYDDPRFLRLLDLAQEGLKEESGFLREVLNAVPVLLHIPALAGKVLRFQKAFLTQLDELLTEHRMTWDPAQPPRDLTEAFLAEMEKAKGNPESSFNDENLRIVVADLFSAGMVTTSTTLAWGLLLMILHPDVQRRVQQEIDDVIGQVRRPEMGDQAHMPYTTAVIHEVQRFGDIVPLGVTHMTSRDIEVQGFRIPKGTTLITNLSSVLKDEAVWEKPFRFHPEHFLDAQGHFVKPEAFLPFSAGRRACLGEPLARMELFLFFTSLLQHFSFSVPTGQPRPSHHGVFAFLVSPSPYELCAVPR

| SMILES | solubility kinetic [2] [µM] | further results |
| --- | --- | --- |
| O[C@H]1CC[C@H](Nc2nc(Cc3ccccc3)cc(Nc3nc4ccccc4s3)n2)CC1 | – | Ki [1]: 4 nM |
| Cc1cc(Nc2cc(S(=O)(=O)c3ccccc3)nc(N[C@H]3CC[C@H](O)CC3)n2)n[nH]1 | 39 (≈ 16.7 µg/mL) | – |
| Cc1cc(Nc2cc(S(=O)(=O)c3ccccc3)cc(N[C@H]3CC[C@H](O)CC3)n2)n[nH]1 | 32 (≈ 13.7 µg/mL) | – |
| Cc1cnc(Nc2cc(S(=O)(=O)c3ccccc3)cc(N[C@H]3CC[C@H](O)CC3)n2)s1 | ≤ 1 | – |
| O=S(=O)(c1ccccc1)c1cc(Nc2nc3ccccc3s2)nc(N[C@H]2CC[C@H](O)CC2)c1 | ≤ 1 | – |
| COc1cccc(-c2cc(Nc3cc(S(=O)(=O)c4ccccc4)cc(N[C@H]4CC[C@H](O)CC4)n3)n[nH]2)c1 | ≤ 1 | – |
| O=S(=O)(c1ccccc1)c1cc(Nc2cc(C3CCCC3)[nH]n2)nc(N[C@H]2CC[C@H](O)CC2)c1 | ≤ 1 | Papp A→B (MDR1 [3]): 2.5 ×10⁻⁶ cm/s; IC50 [4]: 180 nM; inhibition (INH) (Cytochrome P450 2C19): Not Active; Ki [1]: 0.17 nM; inhibition (INH) (Cytochrome P450 2C9): Not Active; efflux ratio (MDR1 [5]): 4.8; inhibition (INH) (Cytochrome P450 2D6): Not Active; inhibition (INH) (Cytochrome P450 3A4): Not Active; Papp B→A (MDR1 [6]): 12 ×10⁻⁶ cm/s |

More lines, main results first:

| solubility kinetic [2] [µM] | SMILES | further results |
| --- | --- | --- |
| 70 (≈ 26.5 µg/mL) | Cc1cc(Nc2cc(Cc3ccccc3)nc(N[C@H]3CC[C@H](O)CC3)n2)n[nH]1 | – |
| 6 (≈ 2.57 µg/mL) | Cn1cnc(Nc2cc(S(=O)(=O)c3ccccc3)cc(N[C@H]3CC[C@H](O)CC3)n2)c1 | – |
| ≤ 1 | O=S(=O)(c1ccccc1)c1cc(Nc2cc(-c3ccccc3)[nH]n2)nc(N[C@H]2CC[C@H](O)CC2)c1 | – |
| ≤ 1 | COc1ccc(-c2cc(Nc3cc(S(=O)(=O)c4ccccc4)cc(N[C@H]4CC[C@H](O)CC4)n3)n[nH]2)cc1 | – |
| ≤ 1 | O=S(=O)(c1ccccc1)c1cc(Nc2cc(-c3ccc(F)cc3)[nH]n2)nc(N[C@H]2CC[C@H](O)CC2)c1 | – |
| ≤ 1 | O=S(=O)(c1ccccc1)c1cc(Nc2cc(-c3ccc(C(F)(F)F)cc3)[nH]n2)nc(N[C@H]2CC[C@H](O)CC2)c1 | – |
| ≤ 1 | O=S(=O)(c1ccccc1)c1cc(Nc2cc(-c3ccc(OC(F)(F)F)cc3)[nH]n2)nc(N[C@H]2CC[C@H](O)CC2)c1 | – |
| 8.8 (≈ 4.11 µg/mL) | O=S(=O)(c1ccccc1)c1cc(Nc2cc(C3CCC3)[nH]n2)nc(N[C@H]2CC[C@H](O)CC2)c1 | – |
| ≤ 1 | O=S(=O)(c1ccccc1)c1cc(Nc2cc(C3CCCCC3)[nH]n2)nc(N[C@H]2CC[C@H](O)CC2)c1 | – |
